Experimental data taken from ChEMBL document CHEMBL5150071, “BAY-7081: A Potent, Selective, and Orally Bioavailable Cyanopyridone-Based PDE9A Inhibitor” (J Med Chem, 2022).
Values after ≈ are worked out from the molar mass of the structure shown. Each block holds one molecule with its values, some of them ahead of it. Active and inactive are the calls of the source. No cut-off for these calls is given here.

Key:
[1] = Protein binding in mouse plasma assessed as fraction unbound incubated for 6 hrs by LC-MS/MS analysis; format: ADME, cell-free
[2] = Toxicity in rat assessed as increase in blood pressure at 5 to 40 mg/kg, po administered once daily via gavage and measured every 5 mins by telemetry system based analysis; format: organism-based; conditions: in vivo, dose 5-40 mg/kg
[3] = Volume of distribution at steady state in dog at 1 mg/kg, po or 0.3 mg/kg, iv measured over 24 hrs by LC-MS/MS analysis; format: ADME, organism-based, Canis lupus familiaris; conditions: in vivo
[4] = MRT in dog at 0.3 mg/kg, iv measured over 24 hrs by LC-MS/MS analysis; format: ADME, organism-based, Canis lupus familiaris; conditions: in vivo
[5] = Blood clearance in Wistar rat at 1 mg/kg, po or 0.3 mg/kg, iv measured over 24 hrs by LC-MS/MS analysis; format: ADME, organism-based; conditions: in vivo
[6] = Volume of distribution at steady state in Wistar rat at 1 mg/kg, po or 0.3 mg/kg, iv measured over 24 hrs by LC-MS/MS analysis; format: ADME, organism-based; conditions: in vivo
[7] = Protein binding in dog plasma assessed as fraction unbound incubated for 6 hrs by LC-MS/MS analysis; format: ADME, cell-free, Canis lupus familiaris
[8] = Oral bioavailability in Wistar rat at 1 mg/kg measured over 24 hrs by LC-MS/MS analysis; format: ADME, organism-based; conditions: in vivo
[9] = Stability in human hepatocytes assessed as drug degradation incubated for 4 hrs; format: ADME, cell-based, Hepatocyte
[10] = Protein binding in human plasma assessed as fraction unbound incubated for 6 hrs by LC-MS/MS analysis; format: ADME, cell-free
[11] = Oral bioavailability in dog at 1 mg/kg measured over 24 hrs by LC-MS/MS analysis; format: ADME, organism-based, Canis lupus familiaris; conditions: in vivo
[12] = Blood clearance in dog at 1 mg/kg, po or 0.3 mg/kg, iv measured over 24 hrs by LC-MS/MS analysis; format: ADME, organism-based, Canis lupus familiaris; conditions: in vivo
[13] = Protein binding in monkey plasma assessed as fraction unbound incubated for 6 hrs by LC-MS/MS analysis; format: ADME, cell-free, Macaca mulatta; conditions: rhesus monkey
[14] = MRT in Wistar rat at 0.3 mg/kg, iv measured over 24 hrs by LC-MS/MS analysis; format: ADME, organism-based; conditions: in vivo
[15] = biological target: T1, High affinity cGMP-specific 3',5'-cyclic phosphodiesterase 9A (Mus musculus, UniProt O70628); test: Inhibition of mouse PDE9A expressed in recombinant CHO cells coexpressing soluble guanylate cyclase incubated for 6 mins by [3H]-cGMP scintillation proximity assay; format: cell-based
T1 sequence (O70628 whole entry): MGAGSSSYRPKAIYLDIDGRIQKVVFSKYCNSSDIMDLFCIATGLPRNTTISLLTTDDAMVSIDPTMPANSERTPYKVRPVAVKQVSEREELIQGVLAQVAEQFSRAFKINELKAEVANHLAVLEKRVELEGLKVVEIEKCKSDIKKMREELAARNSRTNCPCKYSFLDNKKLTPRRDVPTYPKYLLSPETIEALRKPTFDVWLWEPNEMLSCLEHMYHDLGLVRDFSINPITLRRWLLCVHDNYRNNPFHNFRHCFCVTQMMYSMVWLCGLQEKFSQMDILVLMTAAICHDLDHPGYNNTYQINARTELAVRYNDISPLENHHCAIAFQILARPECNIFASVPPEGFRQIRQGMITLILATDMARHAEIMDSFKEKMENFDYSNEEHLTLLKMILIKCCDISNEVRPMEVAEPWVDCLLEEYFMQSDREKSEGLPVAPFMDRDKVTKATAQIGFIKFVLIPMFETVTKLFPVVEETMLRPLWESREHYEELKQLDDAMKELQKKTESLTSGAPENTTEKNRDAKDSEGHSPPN

[16] = Solubility of compound in PBS at pH 7 incubated for 24 hrs by UV based HPLC analysis; format: physicochemical; conditions: buffer, pH 7, 24 h
Cytochrome P450 2C9 = Cytochrome P450 2C9 (Homo sapiens, UniProt P11712); test: Inhibition of CYP2C9 in human liver microsomes using diclofenac as substrate by LC-MS/MS analysis; format: ADME, Microsome
Sequence of Cytochrome P450 2C9 (P11712 whole entry): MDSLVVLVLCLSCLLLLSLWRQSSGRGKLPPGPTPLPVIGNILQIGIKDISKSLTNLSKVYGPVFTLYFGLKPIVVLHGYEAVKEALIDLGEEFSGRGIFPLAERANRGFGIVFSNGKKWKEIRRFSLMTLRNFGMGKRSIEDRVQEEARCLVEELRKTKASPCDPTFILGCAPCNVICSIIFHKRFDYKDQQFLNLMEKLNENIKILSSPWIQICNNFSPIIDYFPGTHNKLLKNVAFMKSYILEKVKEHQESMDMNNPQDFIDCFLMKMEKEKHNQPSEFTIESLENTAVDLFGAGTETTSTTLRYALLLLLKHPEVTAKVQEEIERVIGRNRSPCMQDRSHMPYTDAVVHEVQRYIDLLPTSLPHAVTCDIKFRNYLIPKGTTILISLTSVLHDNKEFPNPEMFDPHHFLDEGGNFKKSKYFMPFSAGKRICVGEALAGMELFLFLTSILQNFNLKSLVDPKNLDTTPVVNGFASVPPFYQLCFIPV

[17] = biological target: High affinity cGMP-specific 3',5'-cyclic phosphodiesterase 9A (Homo sapiens, UniProt O76083); test: Inhibition of full length human PDE9A expressed in Sf9 insect cells using [3H]-cGMP as substrate incubated for 60 mins by microbeta scintillation counter analysis
Sequence of High affinity cGMP-specific 3',5'-cyclic phosphodiesterase 9A (Homo sapiens, UniProt O76083) (O76083 whole entry): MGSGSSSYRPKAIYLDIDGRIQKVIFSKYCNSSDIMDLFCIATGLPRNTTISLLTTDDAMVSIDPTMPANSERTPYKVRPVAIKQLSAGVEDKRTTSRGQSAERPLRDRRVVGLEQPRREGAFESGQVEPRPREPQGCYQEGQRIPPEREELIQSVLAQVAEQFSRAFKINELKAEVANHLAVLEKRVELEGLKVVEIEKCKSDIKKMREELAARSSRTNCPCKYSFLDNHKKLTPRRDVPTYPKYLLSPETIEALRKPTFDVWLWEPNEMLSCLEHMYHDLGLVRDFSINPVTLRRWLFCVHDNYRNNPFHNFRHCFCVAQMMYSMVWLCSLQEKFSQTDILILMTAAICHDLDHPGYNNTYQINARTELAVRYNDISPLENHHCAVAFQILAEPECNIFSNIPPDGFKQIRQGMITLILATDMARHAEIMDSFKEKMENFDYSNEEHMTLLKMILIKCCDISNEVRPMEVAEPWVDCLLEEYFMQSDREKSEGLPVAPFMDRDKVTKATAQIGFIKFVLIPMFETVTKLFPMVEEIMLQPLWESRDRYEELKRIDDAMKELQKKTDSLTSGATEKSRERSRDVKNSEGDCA

[18] = Protein binding in rat plasma assessed as fraction unbound incubated for 6 hrs by LC-MS/MS analysis; format: ADME, cell-free
[19] = Toxicity in rat assessed as increase in heart rate at 5 to 40 mg/kg, po administered once daily via gavage and measured every 5 mins by telemetry system based analysis; format: organism-based; conditions: in vivo, dose 5-40 mg/kg
[20] = Induction of CYP3A4 mRNA expression in human hepatocytes at 9.2 uM incubated for 48 hrs with media replacement for […] by qPCR analysis; format: ADME, cell-based, Hepatocyte
[21] = Drug metabolism in rat hepatocytes assessed as glucuronidation at 10 uM incubated for 30 mins by LC-MS/MS analysis; format: ADME, cell-based, Hepatocyte; conditions: 0.5 h
[22] = Solubility of compound in PBS at pH 6.5 at 50 mg/ml incubated for 24 hrs by LC/MS/MS or HPLC analysis; format: physicochemical; conditions: buffer, pH 6.5, 24 h
[23] = Selectivity index, ratio of IC50 for bovine brain PDE1 to IC50 for full length human PDE9A
Homo sapiens [24] = species on record: Homo sapiens; test: Selectivity index, ratio of IC50 for full length human PDE3B to IC50 for full length human PDE9A
Homo sapiens [25] = species on record: Homo sapiens; test: Selectivity index, ratio of IC50 for full length human PDE4B to IC50 for full length human PDE9A
Homo sapiens [26] = species on record: Homo sapiens; test: Selectivity index, ratio of IC50 for full length human PDE7B to IC50 for full length human PDE9A
Homo sapiens [27] = species on record: Homo sapiens; test: Selectivity index, ratio of IC50 for full length human PDE10A to IC50 for full length human PDE9A
Homo sapiens [28] = species on record: Homo sapiens; test: Selectivity index, ratio of IC50 for full length human PDE2A to IC50 for full length human PDE9A
Homo sapiens [29] = species on record: Homo sapiens; test: Selectivity index, ratio of IC50 for full length human PDE11A to IC50 for full length human PDE9A
Homo sapiens [30] = species on record: Homo sapiens; test: Selectivity index, ratio of IC50 for human platelet PDE5A to IC50 for full length human PDE9A
Homo sapiens [31] = species on record: Homo sapiens; test: Selectivity index, ratio of IC50 for full length human PDE8A to IC50 for full length human PDE9A
[32] = Blood clearance in po or iv dosed Wistar rat measured over 24 hrs by LC-MS/MS analysis; format: ADME, organism-based; conditions: in vivo
[33] = Toxicity in rat assessed as increase in blood pressure at 10 to 50 mg/kg, po administered twice daily via gavage and measured every 5 mins by telemetry system based analysis; format: organism-based; conditions: in vivo, dose 10-50 mg/kg
Mus musculus [34] = test: In vivo inhibition of PDE9A in mouse myocardial hypertrophy model with transverse aortic constriction assessed as reduction in minimal diastolic left ventricular pressure at 10 mg/kg administered twice daily for 5 weeks; format: functional, organism-based
[35] = Toxicity in rat assessed as increase in heart rate at 10 to 50 mg/kg, po administered twice daily via gavage and measured every 5 mins by telemetry system based analysis; format: organism-based; conditions: in vivo, dose 10-50 mg/kg
Mus musculus [36] = test: In vivo inhibition of PDE9A in mouse myocardial hypertrophy model with transverse aortic constriction assessed as reduction of hypertrophy of the left atrium at 10 mg/kg administered twice daily for 5 weeks; format: functional, organism-based
Mus musculus [37] = test: In vivo inhibition of PDE9A in mouse myocardial hypertrophy model with transverse aortic constriction assessed as improvement of heart function at 10 mg/kg administered twice daily for 5 weeks; format: functional, organism-based
Rattus norvegicus = test: In vivo inhibition of PDE9A in Sprague-Dawley rat assessed as increase in cGMP level in urine at 10 to 50 mg/kg, po measured after 85 mins by ELISA; format: functional, organism-based; conditions: dose 10-50 mg/kg

SMILES: CCCC1CNCc2c1[nH]c(=O)c(C#N)c2N1CCC2(CC1)CC2.Cl (stereo in doubt; form 2)
- Fu [1]: 41%
- Activity [2]: Non-Toxic
- Vdss [3]: 3 L/kg
- MRT [4]: 4 h
- CL [5]: 2.4 L/h/kg
- Vdss [6]: 4.5 L/kg
- Fu [7]: 43%
- F ([8]; po, 1 mg/kg, 24 h): 61%
- Stability [9]: Stable
- Fu [10]: 34%
- F [11]: 80%
- CL [12]: 0.9 L/h/kg
- Fu [13]: 42%
- MRT [14]: 1.9 h
- EC50 [15]: 1000 nM
- solubility [16]: > 500 mg/L
- IC50 (Cytochrome P450 2C9): 16 µM
- IC50 [17]: 15 nM
- Fu [18]: 20%
- Activity [19]: Non-Toxic
- Activity [20]: Active

SMILES: CCCC1CCCc2c(-c3ccc(C)cc3)nc(=O)[nH]c21 (racemic)
- IC50 [17]: 13400 nM

SMILES: Cc1ccc(-c2c3c([nH]c(=O)c2C#N)C(C)CCC3)cc1 (racemic)
- IC50 [17]: 310 nM
- solubility [22]: 9 mg/L (≈ 32.3 µM)
- Ratio IC50 [23]: 3

SMILES: Cc1ccc(-c2c(C#N)c(=O)[nH]c3cccnc23)cc1
- IC50 [17]: 725 nM

SMILES: CCCC1CNCc2c1[nH]c(=O)c(C#N)c2N1CCC2(CC2)C(F)(F)C1 (racemic)
- IC50 [17]: 100 nM
- Ratio IC50 [23]: 9

Second part, led by results:

- Drug metabolism [21]: Metabolite_Detected
SMILES: Cc1ccc(-c2c3c([nH]c(=O)c2C#N)C(C(C)C)CNC3)cc1.Cl (racemic)

- Ratio IC50 (Homo sapiens [24]): 69
- Ratio IC50 (Homo sapiens [25]): 69
- Ratio IC50 (Homo sapiens [26]): 69
- Ratio IC50 (Homo sapiens [27]): 69
- Ratio IC50 (Homo sapiens [28]): 69
- Ratio IC50 (Homo sapiens [29]): 69
- Ratio IC50 (Homo sapiens [30]): 69
- Ratio IC50 (Homo sapiens [31]): 69
SMILES: CCCC1CCCc2c1[nH]c(=O)c(C#N)c2-c1ccc(C)cc1 (stereo not given)

- Ratio IC50 (Homo sapiens [24]): > 100
- Ratio IC50 (Homo sapiens [26]): > 100
- Ratio IC50 (Homo sapiens [27]): > 100
- CL [32]: 2.8 L/kg/h
- Ratio IC50 (Homo sapiens [28]): > 100
- Ratio IC50 (Homo sapiens [29]): > 100
- Ratio IC50 (Homo sapiens [30]): > 100
- Ratio IC50 (Homo sapiens [31]): > 100
SMILES: CCCC1CNCc2c1[nH]c(=O)c(C#N)c2N1CCC(C)(C)CC1.Cl (stereo not given)

- Vdss [3]: 1.5 L/kg
- MRT [4]: 3.1 h
- CL [5]: 3 L/h/kg
- Vdss [6]: 2.2 L/kg
- bioavailability ([8]; Wistar): 41%
- F [11]: 38%
- CL [12]: 0.5 L/h/kg
- MRT [14]: 0.8 h
SMILES: C[C@@H]1CN(Cc2ncccn2)C[C@H]1c1nc2c(cnn2C2CCOCC2)c(=O)[nH]1 [EDELINONTRINE]
- Activity [33]: Non-Toxic
- inhibition (Mus musculus [34]): Active
- Activity [35]: Non-Toxic
- inhibition (Mus musculus [36]): Active
- inhibition (Mus musculus [37]): Active
- inhibition (Rattus norvegicus): Active

- Drug metabolism [21]: Metabolite_Detected
SMILES: COCC1CCCc2c1[nH]c(=O)c(C#N)c2-c1ccc(C)cc1 (racemic)
